Data as given in patent publication US9693992B2 (MannKind Corporation, priority 2010, dated 2017).

Target: IRE-1α (Homo sapiens (Human), UniProt O75460)
Test: Cellular EC50: endogenous XBP-1 splicing in myeloma cells (MM.1s, DTT stress, RT-PCR)
Assay type: cell-based
Settings: average cellular EC50, XBP-1 splicing in myeloma cells
Protocol: Human myeloma MM.1s cells are incubated with a compound for 1.25 hours before stressing the cells with 2 mM dithiothreitol (DTT). After an additional 45 minutes (2 hours total) with compound and DTT, the cells are harvested with TRIZOL® (a mono-phasic solution of phenol and guanidine isothiocyanate), and total RNA is prepared as directed by the manufacturer (Invitrogen). Human XBP-1 is amplified by RT-PCR with the following primers, which flank the 26 base unconventional intron excised by IRE-1α:
RT-PCR of unstressed (U) cells then generates the upper band. When cells are stressed (S) with the endoplasmic reticulum (ER) stressing agent DTT, IRE-1α is activated due to accumulating unfolded protein and the resulting RT-PCR product is 26 base pairs shorter.
Compounds which pass specificity assays are assayed for cellular EC50 using endogenous XBP-1 splicing in myeloma cells. XBP-1 is regulated through the excision of a 26 nucleotide intron from the XBP-1 mRNA by the highly specific endoribonuclease activity of IRE-1α. […] This splicing event is used to measure IRE-1α activity on XBP-1 mRNA in cells and tissues.
Briefly, compounds are incubated in the presence or absence of an ER stress agent (e.g., DTT), and the ratio of XBP-1u (unspliced) to XBP-1s (spliced) is quantified by RT-PCR. The ED50 is determined as the 50% XBP-1s to total XPB-1 levels.

Sequence of IRE-1α (O75460 19-977): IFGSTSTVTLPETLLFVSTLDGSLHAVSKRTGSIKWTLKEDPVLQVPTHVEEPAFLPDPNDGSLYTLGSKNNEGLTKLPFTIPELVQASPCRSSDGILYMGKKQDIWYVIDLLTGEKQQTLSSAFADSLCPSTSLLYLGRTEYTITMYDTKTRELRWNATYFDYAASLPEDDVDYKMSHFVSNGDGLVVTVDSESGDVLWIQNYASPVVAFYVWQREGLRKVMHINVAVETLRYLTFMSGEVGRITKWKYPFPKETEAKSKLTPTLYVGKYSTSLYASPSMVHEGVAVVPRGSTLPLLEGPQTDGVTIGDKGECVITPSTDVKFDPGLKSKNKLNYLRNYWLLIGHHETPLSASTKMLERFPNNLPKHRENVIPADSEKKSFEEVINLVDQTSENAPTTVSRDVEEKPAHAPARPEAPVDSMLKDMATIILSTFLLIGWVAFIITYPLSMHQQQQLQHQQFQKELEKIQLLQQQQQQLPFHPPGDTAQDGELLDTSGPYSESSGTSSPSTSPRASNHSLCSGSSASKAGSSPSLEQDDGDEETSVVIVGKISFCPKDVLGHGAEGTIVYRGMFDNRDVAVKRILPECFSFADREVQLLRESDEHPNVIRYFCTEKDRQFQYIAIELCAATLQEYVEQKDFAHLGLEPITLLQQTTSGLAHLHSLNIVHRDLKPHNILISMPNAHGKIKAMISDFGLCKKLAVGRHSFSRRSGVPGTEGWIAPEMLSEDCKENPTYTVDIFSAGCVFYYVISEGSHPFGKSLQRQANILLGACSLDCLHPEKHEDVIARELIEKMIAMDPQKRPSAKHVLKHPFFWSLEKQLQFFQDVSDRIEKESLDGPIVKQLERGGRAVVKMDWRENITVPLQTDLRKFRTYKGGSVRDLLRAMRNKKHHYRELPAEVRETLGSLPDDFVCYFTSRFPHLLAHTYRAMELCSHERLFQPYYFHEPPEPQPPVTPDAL

EC50	Compound
> 10 µM	COCCOc1cc(O)c(C=O)c2oc(=O)c(CCC(=O)NCCN3CCOCC3)c(C)c12 [Example 156]
> 10 µM	COCCOc1cc(O)c(C=O)c2oc(=O)c(CCC(=O)NCCN(C)C)c(C)c12 [Example 157]
< 10 µM	CCOC(=O)Cc1c(C)c2c(OCCOC)cc(O)c(C=O)c2oc1=O [Example 158]
< 10 µM	COCCNC(=O)Cc1c(C)c2c(OCCOC)cc(O)c(C=O)c2oc1=O [Example 159]
< 10 µM	COCCOc1cc(O)c(C=O)c2oc(=O)c(CC(=O)N3CCOCC3)c(C)c12 [Example 160]
< 10 µM	CCNC(=O)Cc1c(C)c2c(OCCOC)cc(O)c(C=O)c2oc1=O [Example 162]
< 10 µM	COCCOc1cc(O)c(C=O)c2oc(=O)c(CC(=O)NCCN3CCOCC3)c(C)c12 [Example 163]
> 10 µM	COCCOc1cc(O)c(C=O)c2oc(=O)c(CC(=O)NCCN(C)C)c(C)c12 [Example 164]
< 10 µM	COCCOc1cc(O)c(C=O)c2oc(=O)c(C)c(C)c12 [Example 165]
< 10 µM	COCCNC(=O)Cc1c(C)c2cc(OC)c(O)c(C=O)c2oc1=O [Example 166]
< 10 µM	CCNC(=O)Cc1c(C)c2cc(OC)c(O)c(C=O)c2oc1=O [Example 169]
< 10 µM	COc1cc2c(C)c(CC(=O)NCCN(C)C)c(=O)oc2c(C=O)c1O [Example 170]
< 10 µM	COCCNC(=O)CCc1c(C)c2cc(OC)c(O)c(C=O)c2oc1=O [Example 171]
< 10 µM	COc1cc2c(C)c(CCC(=O)N3CCOCC3)c(=O)oc2c(C=O)c1O [Example 172]
< 10 µM	COc1cc2c(C)c(CCC(=O)N3CCN(C)CC3)c(=O)oc2c(C=O)c1O [Example 173]
< 10 µM	CCNC(=O)CCc1c(C)c2cc(OC)c(O)c(C=O)c2oc1=O [Example 174]
> 10 µM	COc1cc2c(C)c(CCC(=O)NCCN(C)C)c(=O)oc2c(C=O)c1O [Example 175]
< 10 µM	COCCNC(=O)Cc1c(C)c2c(OC)cc(O)c(C=O)c2oc1=O [Example 176]
< 10 µM	COc1cc(O)c(C=O)c2oc(=O)c(CC(=O)N3CCOCC3)c(C)c12 [Example 177]
< 10 µM	COc1cc(O)c(C=O)c2oc(=O)c(CC(=O)NCCN3CCOCC3)c(C)c12 [Example 179]
< 10 µM	COc1cc(O)c(C=O)c2oc(=O)c(CC(=O)NCCN(C)C)c(C)c12 [Example 180]
< 10 µM	COCCOc1cc2c(C)c(CCC(=O)N3CCOCC3)c(=O)oc2c(C=O)c1O [Example 181]
< 10 µM	COCCOc1cc2c(C)c(CCC(=O)N3CCN(C)CC3)c(=O)oc2c(C=O)c1O [Example 182]
< 10 µM	CCNC(=O)CCc1c(C)c2cc(OCCOC)c(O)c(C=O)c2oc1=O [Example 183]
< 10 µM	COCCNC(=O)CCc1c(C)c2cc(OCCOC)c(O)c(C=O)c2oc1=O [Example 184]
> 10 µM	COCCOc1cc2c(C)c(CCC(=O)NCCN(C)C)c(=O)oc2c(C=O)c1O [Example 185]

EC50	Compound
> 10 µM	COCCOc1cc2c(C)c(CCC(=O)NCCN3CCOCC3)c(=O)oc2c(C=O)c1O [Example 186]
< 10 µM	COCCOc1cc2c(C)c(CC(=O)NCCN3CCOCC3)c(=O)oc2c(C=O)c1O [Example 187]
< 10 µM	COCCOc1cc2c(C)c(CC(=O)N3CCOCC3)c(=O)oc2c(C=O)c1O [Example 188]
< 10 µM	COCCNC(=O)Cc1c(C)c2cc(OCCOC)c(O)c(C=O)c2oc1=O [Example 190]
< 10 µM	CCNC(=O)Cc1c(C)c2cc(OCCOC)c(O)c(C=O)c2oc1=O [Example 191]
< 10 µM	COc1cc(O)c(C=O)c2oc(=O)c(CCC(=O)N3CCOCC3)c(C)c12 [Example 192]
< 10 µM	COc1cc(O)c(C=O)c2oc(=O)c(CCC(=O)N3CCN(C)CC3)c(C)c12 [Example 193]
< 10 µM	COCCNC(=O)CCc1c(C)c2c(OC)cc(O)c(C=O)c2oc1=O [Example 194]
< 10 µM	COc1cc(O)c(C=O)c2oc(=O)c(CCC(=O)NCCN(C)C)c(C)c12 [Example 195]
< 10 µM	COc1cc(O)c(C=O)c2oc(=O)c(CCC(=O)NCCN3CCOCC3)c(C)c12 [Example 196]
< 10 µM	COc1cc2c(C(F)(F)F)cc(=O)oc2c(C=O)c1O [Example 197]
< 10 µM	COc1cc2c3c(c(=O)oc2c(C=O)c1O)CCC3 [Example 198]
> 10 µM	COc1cc2c(C)c(C)c(=O)oc2c(C=O)c1O [Example 199]
> 10 µM	COc1cc2c(C)c(C(C)C)c(=O)oc2c(C=O)c1O [Example 200]
< 10 µM	Cc1c(CCC(=O)NCCN2CCOCC2)c(=O)oc2c(C=O)c(O)ccc12 [Example 201]
> 10 µM	COCCNC(=O)CCc1c(C)c2cc(OCCN3CCOCC3)c(O)c(C=O)c2oc1=O [Example 202]
< 10 µM	Cc1c(C)c2cc(OCCN3CCOCC3)c(O)c(C=O)c2oc1=O [Example 203]
> 10 µM	CCNC(=O)CCc1c(C)c2cc(OCCN3CCOCC3)c(O)c(C=O)c2oc1=O [Example 204]
10 µM	COCCNC(=O)Cc1c(C)c2cc(OCCN3CCOCC3)c(O)c(C=O)c2oc1=O [Example 205]
10 µM	Cc1c(CC(=O)N2CCOCC2)c(=O)oc2c(C=O)c(O)c(OCCN3CCOCC3)cc12 [Example 206]
> 10 µM	COc1cc2c(=O)c(CC(=O)N3CCOCC3)c(C)oc2c(C=O)c1O [Example 207]
< 10 µM	CCNC(=O)Cc1c(C)oc2c(C=O)c(O)c(OC)cc2c1=O [Example 209]
> 10 µM	COc1cc2c(=O)c(CC(=O)NCCN3CCOCC3)c(C)oc2c(C=O)c1O [Example 210]
> 10 µM	COc1cc2c(=O)c(CC(=O)NCCN(C)C)c(C)oc2c(C=O)c1O [Example 211]
> 10 µM	COCCNC(=O)CCc1c(C)oc2c(C=O)c(O)c(OC)cc2c1=O [Example 212]
> 10 µM	CCNC(=O)CCc1c(C)oc2c(C=O)c(O)c(OC)cc2c1=O [Example 213]

EC50	Compound
> 10 µM	COc1cc2c(=O)c(CCC(=O)NCCN(C)C)c(C)oc2c(C=O)c1O [Example 214]
< 10 µM	COCCNC(=O)CCc1c(C)oc2c(C=O)c(O)ccc2c1=O [Example 215]
< 10 µM	Cc1oc2c(C=O)c(O)ccc2c(=O)c1CCC(=O)N1CCOCC1 [Example 216]
< 10 µM	CCNC(=O)CCc1c(C)oc2c(C=O)c(O)ccc2c1=O [Example 217]
> 10 µM	Cc1oc2c(C=O)c(O)ccc2c(=O)c1CCC(=O)NCCN(C)C [Example 218]
> 10 µM	Cc1oc2c(C=O)c(O)ccc2c(=O)c1CCC(=O)NCCN1CCOCC1 [Example 219]
< 10 µM	COCCNC(=O)Cc1c(C)oc2c(C=O)c(O)ccc2c1=O [Example 220]
> 10 µM	Cc1oc2c(C=O)c(O)ccc2c(=O)c1CC(=O)N1CCOCC1 [Example 221]
< 10 µM	CCNC(=O)Cc1c(C)oc2c(C=O)c(O)ccc2c1=O [Example 223]
> 10 µM	Cc1oc2c(C=O)c(O)ccc2c(=O)c1CC(=O)NCCN(C)C [Example 224]
> 10 µM	Cc1oc2c(C=O)c(O)ccc2c(=O)c1CC(=O)NCCN1CCOCC1 [Example 225]
< 10 µM	COCCNC(=O)Cc1c(C)oc2c(C=O)c(O)cc(OC)c2c1=O [Example 226]
< 10 µM	COc1cc(O)c(C=O)c2oc(C)c(CC(=O)N3CCOCC3)c(=O)c12 [Example 227]
< 10 µM	CCNC(=O)Cc1c(C)oc2c(C=O)c(O)cc(OC)c2c1=O [Example 228]
> 10 µM	Cn1c(CCC(=O)N2CCOCC2)nc2ccc(O)c(C=O)c21 [Example 229]
> 10 µM	CCNC(=O)CCc1nc2c(C=O)c(O)ccc2n1C [Example 230]
> 10 µM	COCCNC(=O)CCc1nc2c(C=O)c(O)ccc2[nH]1 [Example 231]
> 10 µM	O=Cc1c(O)ccc2[nH]c(CCC(=O)N3CCOCC3)nc12 [Example 232]
< 10 µM	CN1CCC(NC(=O)CCc2nc3c(C=O)c(O)ccc3[nH]2)CC1 [Example 233]
> 10 µM	CCNC(=O)CCc1nc2c(C=O)c(O)ccc2[nH]1 [Example 234]
> 10 µM	O=Cc1c(O)ccc2nc(CCC(=O)NCCN3CCOCC3)[nH]c12 [Example 235]
> 10 µM	CN(C)CCNC(=O)CCc1nc2c(C=O)c(O)ccc2[nH]1 [Example 236]
> 10 µM	COCCNC(=O)CCc1nc2ccc(O)c(C=O)c2n1C [Example 237]
> 10 µM	Cn1c(CCC(=O)NCCN2CCOCC2)nc2ccc(O)c(C=O)c21 [Example 238]
> 10 µM	CN1CCN(C(=O)CCc2nc3ccc(O)c(C=O)c3n2C)CC1 [Example 239]

Compound	EC50
COCCOc1cc(O)c(C=O)c2oc(=O)c(CC(=O)N3CCN(C)CC3)c(C)c12 [Example 161]	< 10 µM
COc1cc2c(C)c(CC(=O)N3CCN(C)CC3)c(=O)oc2c(C=O)c1O [Example 168]	< 10 µM
COc1cc(O)c(C=O)c2oc(=O)c(CC(=O)N3CCN(C)CC3)c(C)c12 [Example 178]	< 10 µM
COCCOc1cc2c(C)c(CC(=O)N3CCN(C)CC3)c(=O)oc2c(C=O)c1O [Example 189]	< 10 µM
COc1cc2c(=O)c(CC(=O)N3CCN(C)CC3)c(C)oc2c(C=O)c1O [Example 208]	> 10 µM
Cc1oc2c(C=O)c(O)ccc2c(=O)c1CC(=O)N1CCN(C)CC1 [Example 222]	< 10 µM
